Laboratory results: PubChem BioAssay (NCI)
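Values below derive from 48-hour exposures of cells grown in 96-well plates, with endpoints linearly interpolated between the two concentrations bracketing the appropriate inhibition level. The concentration for full growth arrest is given as TGI.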

What was measured:
Assay in all cases: NCI tumour cell line growth inhibition, 48 h
786-0 renal = test system: 786-0 renal
A549 NSCLC = test system: A549 NSCLC
ACHN renal = test system: ACHN renal
CCRF-CEM leukemia = test system: CCRF-CEM leukemia
COLO 205 colon = test system: COLO 205 colon
DLD-1 colon = test system: DLD-1 colon
DMS 114 small cell lung = test system: DMS 114 small cell lung
DMS 273 small cell lung = test system: DMS 273 small cell lung
HCC-2998 colon = test system: HCC-2998 colon
HCT-116 colon = test system: HCT-116 colon
HCT-15 colon = test system: HCT-15 colon
HL-60(TB) leukemia = test system: HL-60(TB) leukemia
HOP-18 NSCLC = test system: HOP-18 NSCLC
HOP-92 NSCLC = test system: HOP-92 NSCLC
HT29 colon = test system: HT29 colon
IGROV1 ovarian = test system: IGROV1 ovarian
K-562 leukemia = test system: K-562 leukemia
KM12 colon = test system: KM12 colon
LXFL 529 NSCLC = test system: LXFL 529 NSCLC
M14 melanoma = test system: M14 melanoma
M19-MEL melanoma = test system: M19-MEL melanoma
MALME-3M melanoma = test system: MALME-3M melanoma
MOLT-4 leukemia = test system: MOLT-4 leukemia
NCI-H226 lung = test system: NCI-H226 lung
NCI-H23 lung = test system: NCI-H23 lung
NCI-H460 lung = test system: NCI-H460 lung
OVCAR-3 ovarian = test system: OVCAR-3 ovarian
OVCAR-4 ovarian = test system: OVCAR-4 ovarian
OVCAR-5 ovarian = test system: OVCAR-5 ovarian
OVCAR-8 ovarian = test system: OVCAR-8 ovarian
RPMI-8226 leukemia = test system: RPMI-8226 leukemia
SF-268 CNS = test system: SF-268 CNS
SF-295 CNS = test system: SF-295 CNS
SF-539 CNS = test system: SF-539 CNS
SK-MEL-2 melanoma = test system: SK-MEL-2 melanoma
SK-MEL-28 melanoma = test system: SK-MEL-28 melanoma
SK-MEL-5 melanoma = test system: SK-MEL-5 melanoma
SK-OV-3 ovarian = test system: SK-OV-3 ovarian
SN12C renal = test system: SN12C renal
SNB-75 CNS = test system: SNB-75 CNS
SNB-78 CNS = test system: SNB-78 CNS
TK-10 renal = test system: TK-10 renal
U251 CNS = test system: U251 CNS
UACC-257 melanoma = test system: UACC-257 melanoma
UO-31 renal = test system: UO-31 renal
XF 498 CNS = test system: XF 498 CNS

Measured: TGI

CSC1(C)CC2C(CC1N1CCOCC1)C2(C)C (stereo unspecified)
> 100 µM: 786-0 renal | A549 NSCLC | ACHN renal | CCRF-CEM leukemia | COLO 205 colon | DLD-1 colon | DMS 114 small cell lung | DMS 273 small cell lung | HCC-2998 colon | HCT-116 colon | HCT-15 colon | HL-60(TB) leukemia | HOP-18 NSCLC | HOP-92 NSCLC | HT29 colon | IGROV1 ovarian | K-562 leukemia | KM12 colon | LXFL 529 NSCLC | M14 melanoma | M19-MEL melanoma | MALME-3M melanoma | MOLT-4 leukemia | NCI-H226 lung | NCI-H23 lung | NCI-H460 lung | OVCAR-3 ovarian | OVCAR-4 ovarian | OVCAR-5 ovarian | OVCAR-8 ovarian | RPMI-8226 leukemia | SF-268 CNS | SF-295 CNS | SF-539 CNS | SK-MEL-2 melanoma | SK-MEL-28 melanoma | SK-MEL-5 melanoma | SK-OV-3 ovarian | SN12C renal | SNB-75 CNS | SNB-78 CNS | TK-10 renal | U251 CNS | UACC-257 melanoma | UO-31 renal | XF 498 CNS
